ChEMBL document CHEMBL2375223, “Disulfide linked pyrazole derivatives inhibit phagocytosis of opsonized blood cells” (Bioorg Med Chem Lett, 2013)
The source made the active and inactive calls. The calls are words filed in the database; no cut-off is given here.

Experiments:
[1] = molecular target: High affinity immunoglobulin gamma Fc receptor I (Homo sapiens) (UniProt P12314); experiment: Inhibition of FCgamma receptor in human PBMC assessed as inhibition of opsonized RBC phagocytosis at 5 uM incubated for 1 hr prior to RBC addition measured after 2 hrs by monocyte monolayer assay relative to control
Chain of High affinity immunoglobulin gamma Fc receptor I (Homo sapiens) (P12314 whole entry): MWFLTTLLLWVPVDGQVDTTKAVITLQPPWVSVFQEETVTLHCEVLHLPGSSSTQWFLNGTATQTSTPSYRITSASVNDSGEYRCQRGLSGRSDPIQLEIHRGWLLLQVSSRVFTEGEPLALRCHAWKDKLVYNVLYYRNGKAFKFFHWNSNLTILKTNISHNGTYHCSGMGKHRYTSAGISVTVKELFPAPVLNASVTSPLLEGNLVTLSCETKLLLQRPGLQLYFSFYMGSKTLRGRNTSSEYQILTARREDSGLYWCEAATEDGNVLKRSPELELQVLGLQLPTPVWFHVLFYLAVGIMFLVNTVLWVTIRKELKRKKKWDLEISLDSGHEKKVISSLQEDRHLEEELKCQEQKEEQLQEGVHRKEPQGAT

[2] = tested on: PBMC; experiment: Induction of apoptosis in human PBMC at 5 uM assessed as apoptotic index after 1 hr by Annexin V-APC/propidium iodide staining-based FACS analysis relative to IVIG; type: functional
[3] = molecular target: High affinity immunoglobulin gamma Fc receptor I (Homo sapiens) (UniProt P12314); experiment: Inhibition of FCgamma receptor in human PBMC assessed as inhibition of opsonized RBC phagocytosis at 1 mM incubated for 1 hr prior to RBC addition measured after 2 hrs by monocyte monolayer assay relative to control

SMILES: Cc1nn(-c2ccccc2)c(S)c1C(=O)c1ccno1
- inhibition [1]: inactive

SMILES: Cc1nn(-c2ccccc2)c(SSc2c(C(=O)c3cccs3)c(C)nn2-c2ccccc2)c1C(=O)c1cccs1
- fold change (FC) [2]: 0.69
- inhibition [1]: 19%

SMILES: Cc1nn(-c2ccccc2)c(SSc2c(C(=O)c3ccccc3)c(C)nn2-c2ccccc2)c1C(=O)c1ccccc1
- fold change (FC) [2]: 1.04
- inhibition [1]: 22%

SMILES: Cc1nn(-c2ccccc2)c(SSc2c(C(=O)N3CCOCC3)c(C)nn2-c2ccccc2)c1C(=O)N1CCOCC1
- fold change (FC) [2]: 1.88
- inhibition [1]: 20%

SMILES: Cc1cc(SSc2cc(C)nn2-c2ccccc2)n(-c2ccccc2)n1
- fold change (FC) [2]: 2.78
- inhibition [1]: 43%

SMILES: Cc1nn(-c2ccccc2)c(S)c1C(=O)c1ccccc1
- fold change (FC) [2]: 1.29
- inhibition [1]: 0%
- inhibition [3]: inactive

SMILES: Cc1nn(-c2ccccc2)c(SSc2c(C(=O)N3CCCCC3)c(C)nn2-c2ccccc2)c1C(=O)N1CCCCC1
- fold change (FC) [2]: 1.87
- inhibition [1]: 34%
